In the NIST ThermoML archive (doi:10.1021/je700308j):
Values joined by “and” are separate entries in the source; they are usually repeats but may differ in a detail not shown here. Equal entries are not always repeated.

Legend:
[1] = excess molar enthalpy (molar enthalpy of mixing); xn = mol fraction of the nth substance listed; conditions: 298.15 K, 101 kPa, Liquid, Flow calorimetry
[2] = heat capacity at constant pressure per volume; xn = mol fraction of the nth substance listed; conditions: 298.15 K, 101 kPa, Liquid, Flow calorimetry
[3] = xn = mol fraction of the nth substance listed; conditions: 298.15 K, 101 kPa, Liquid

CCCCCCCCC [nonane] + C1CCOC1
[1]
Conditions	excess molar enthalpy
x2 = 0.104	0.0714 kcal/mol
x2 = 0.197	0.124 kcal/mol
x2 = 0.355	0.189 kcal/mol
x2 = 0.485	0.213 kcal/mol
x2 = 0.595	0.212 kcal/mol
x2 = 0.688	0.195 kcal/mol
x2 = 0.768	0.169 kcal/mol
x2 = 0.837	0.134 kcal/mol
x2 = 0.898	0.0974 kcal/mol
x2 = 0.952	0.0514 kcal/mol and 0.0513 kcal/mol

C1CCOC1 [tetrahydrofuran] + CCCCCCCCO
Conditions	heat capacity, [2] [J/K/m3]	mass density, [3] [kg/m3]
x1 = 0.0608	1927000	823.33
x1 = 0.088	1918000	824.18
x1 = 0.1954	1884000	827.86
x1 = 0.3048	1850000	832.05
x1 = 0.4026	1817000	836.34
x1 = 0.5009	1781000	841.27
x1 = 0.6069	1737000	847.37
x1 = 0.7044	1691000	853.86
x1 = 0.7994	1640000	861.36
x1 = 0.9	1580000	870.65
x1 = 0.9523	1546000	876.26

C1CCOC1 [tetrahydrofuran] + CCCCO
Conditions	heat capacity, [2] [J/K/m3]	mass density, [3] [kg/m3]
x1 = 0.0456	1918000	808.89
x1 = 0.0951	1901000	812.34
x1 = 0.1935	1867000	819.24
x1 = 0.2997	1830000	826.84
x1 = 0.3963	1794000	833.86
x1 = 0.5009	1753000	841.67
x1 = 0.5988	1711000	849.16
x1 = 0.6962	1667000	856.68
x1 = 0.8012	1615000	865.12
x1 = 0.9017	1564000	873.45
x1 = 0.9472	1541000	877.34

C1CCOC1 [tetrahydrofuran] + CCCO
Conditions	heat capacity, [2] [J/K/m3]	mass density, [3] [kg/m3]
x1 = 0.0482	1911000	804.27
x1 = 0.103	1891000	809.19
x1 = 0.1944	1858000	817.24
x1 = 0.3022	1819000	826.44
x1 = 0.3994	1782000	834.52
x1 = 0.499	1742000	842.64
x1 = 0.5994	1699000	850.66
x1 = 0.7016	1654000	858.7
x1 = 0.795	1610000	866.01
x1 = 0.9017	1560000	874.29
x1 = 0.9435	1541000	877.53

C1CCOC1 [tetrahydrofuran] + CCO
Conditions	heat capacity, [2] [J/K/m3]	mass density, [3] [kg/m3]
x1 = 0.0532	1907000	792.12
x1 = 0.0989	1889000	798.14
x1 = 0.2018	1849000	810.67
x1 = 0.3084	1808000	822.54
x1 = 0.4	1772000	832.02
x1 = 0.5015	1731000	841.8
x1 = 0.6074	1688000	851.3
x1 = 0.711	1643000	860.02
x1 = 0.8104	1599000	867.85
x1 = 0.9048	1556000	875.03
x1 = 0.9426	1540000	877.76

C1CCOC1 [tetrahydrofuran] + CO
Conditions	heat capacity, [2] [J/K/m3]	mass density, [3] [kg/m3]
x1 = 0.0989	1907000	804.78
x1 = 0.195	1850000	819.46
x1 = 0.2967	1797000	832.35
x1 = 0.4006	1747000	843.35
x1 = 0.4848	1714000	851
x1 = 0.5999	1667000	859.93
x1 = 0.6968	1631000	866.37
x1 = 0.7926	1594000	871.94
x1 = 0.8946	1555000	877.17
